The target in data set [1] is T1, TREK-1^CG* (K2P2.1 (TREK-1) S131C) (Mus musculus, UniProt P97438, S146C).
T1 construct: expressed in transfected cells; host or cells: Xenopus laevis oocytes injected with mRNA
T1 sequence (P97438 1-411 isoform P97438-2 S131C): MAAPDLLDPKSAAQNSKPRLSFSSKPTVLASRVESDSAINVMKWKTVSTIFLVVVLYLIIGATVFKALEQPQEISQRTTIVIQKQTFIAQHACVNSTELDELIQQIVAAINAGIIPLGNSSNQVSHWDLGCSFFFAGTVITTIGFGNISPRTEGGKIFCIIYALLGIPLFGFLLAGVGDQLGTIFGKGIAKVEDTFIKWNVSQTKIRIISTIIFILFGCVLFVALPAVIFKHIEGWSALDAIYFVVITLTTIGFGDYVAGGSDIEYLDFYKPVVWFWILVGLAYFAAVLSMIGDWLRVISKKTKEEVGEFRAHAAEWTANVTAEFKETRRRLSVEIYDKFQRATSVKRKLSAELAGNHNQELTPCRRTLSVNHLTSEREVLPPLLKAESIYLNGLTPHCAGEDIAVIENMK
The experiment in a line: TEVC in Xenopus oocytes. In kind it is cell-based. The note with it: Fold-activation at 20 uM in oocytes. The text has this:
(§1) Mouse K2P2.1 (TREK-1) (Genbank accession number: NP_034737.2), mouse K2P10.1 (TREK-2) (NM_001316665.1), mouse K2P4.1 (TRAAK) (NM_008431.3), human K2P4.1 (TRAAK) (NM_033310.2) and mouse K2P18.1(TRESK) (NM_207261.3) were used for this study. Point mutations were introduced by site-directed mutagenesis using custom primers and confirmed by sequencing before use. For studies using Xenopus oocytes, K2P channels were subcloned into a previously reported pGEMHE/pMO vector (46). For expression in HEK293 cells, mouse K2P2.1 (TREK-1) and mutants were expressed from a previously described pIRES2-EGFP vector in HEK293 cells (46,47). K2P2.1 (TREK-1) tandems were constructed by connecting the open reading frames for the individual subunits with a linker encoding the […] (SEQ ID NO: 19) sequence. Tandems used for HEK293 cells included an N-terminal HA tag ([…] (SEQ ID NO: 20)) on the first subunit.
(§2) Xenopus laevis oocytes were harvested according to UCSF IACUC Protocol AN129690 and digested using collagenase (Worthington Biochemical Corporation, #LS004183, 0.8-1.0 mg/mL) in Ca^21-free ND96 (96 mM NaCl, 2 mM KCl, 3.8 mM MgCl2, 5 mM HEPES pH 7.4) immediately post-harvest, as previously reported (31,33). Oocytes were maintained at 18° C. in ND96 (96 mM NaCl, 2 mM KCl, 1.8 mM CaCl2, 2 mM MgCl2, 5 mM HEPES pH 7.4) supplemented with antibiotics (100 units mL^−1 penicillin, 100 μg mL^−1 streptomycin, 50 μg mL^−1 gentimycin) and used for experiments within one week of harvest.
(§3) Defolliculated stage V-VI oocytes were microinjected with 0.5-36 ng mRNA and currents were recorded within 16-48 h hours of injection.
(§4) For recordings, oocytes were impaled with borosilicate recording microelectrodes (0.4-2.0 MΩ resistance) backfilled with 3 M KCl and were subjected to constant perfusion of ND96 at a rate of 3 ml min^−1. Recording solutions containing K2P activators were prepared immediately prior to use from DMSO stocks (20-100 mM), with final DMSO concentrations of 0.1%. Currents were evoked from a −80 mV holding potential followed by a 300 ms ramp from −150 mV to +50 mV. Data were recorded using a GeneClamp 500B amplifier (MDS Analytical Technologies) controlled by pCLAMP8 software (Molecular Devices), and digitized at 1 kHz using Digidata 1332 Å digitizer (MDS Analytical Technologies). For each recording, control solution (ND96) was perfused over a single oocyte until current was stable before switching to solutions containing the test compounds at various concentrations. Representative traces and dose response plots were generated in GraphPad Prism 9.

In another data set the target is T2, K2P2.1 (TREK-1) (Mus musculus, UniProt P97438).
T2 construct: expressed in transfected cells; host or cells: Xenopus laevis oocytes injected with mRNA (pGEMHE/pMO vector)
T2 sequence (P97438 1-411 isoform P97438-2): T1 sequence (P97438 1-411 isoform P97438-2 S131C) with C131S
The data set can be described thus: Two-electrode voltage clamp (TEVC) in Xenopus oocytes. The note with it: for TREK-1 activity class: Fold-activation at 20 uM in oocytes. In kind it is cell-based.
Source text: as §1, §2, §3, §4
(In general: Two-electrode voltage clamp holds a large cell at a set potential and records current.)

The next data set concerns the target T3, K2P10.1 (TREK-2)^CG* (Mus musculus, UniProt Q8BUW1, S153C).
T3 construct: Modified TREK-2 from Mus musculus; expressed in transfected cells; host or cells: Xenopus laevis oocytes injected with mRNA
T3 sequence (Q8BUW1 with tags, fused parts or gaps S153C): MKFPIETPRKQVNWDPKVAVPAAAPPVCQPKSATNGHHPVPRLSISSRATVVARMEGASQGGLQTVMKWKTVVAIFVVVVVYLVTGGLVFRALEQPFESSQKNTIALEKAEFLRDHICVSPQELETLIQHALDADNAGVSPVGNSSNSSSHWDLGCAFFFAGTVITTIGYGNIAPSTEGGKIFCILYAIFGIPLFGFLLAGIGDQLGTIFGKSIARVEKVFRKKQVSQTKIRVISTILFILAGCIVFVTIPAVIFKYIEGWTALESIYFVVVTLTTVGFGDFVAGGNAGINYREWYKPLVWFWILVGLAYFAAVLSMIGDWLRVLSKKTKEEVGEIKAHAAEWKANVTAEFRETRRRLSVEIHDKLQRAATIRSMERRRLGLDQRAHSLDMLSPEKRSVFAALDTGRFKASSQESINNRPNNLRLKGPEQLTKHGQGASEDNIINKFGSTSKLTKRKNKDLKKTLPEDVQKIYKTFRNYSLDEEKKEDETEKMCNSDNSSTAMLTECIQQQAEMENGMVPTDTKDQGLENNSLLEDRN
The data set can be described thus: TEVC in Xenopus oocytes. Conditions: Fold-activation at 20 uM in oocytes. In kind it is cell-based.
Source text: as §1, §2, §3, §4

The next data set concerns the target T4, TREK-2 (Mus musculus, UniProt Q8BUW1).
T4 construct: expressed in transfected cells; host or cells: Xenopus laevis oocytes injected with mRNA
T4 sequence (Q8BUW1 with tags, fused parts or gaps): T3 sequence (Q8BUW1 with tags, fused parts or gaps S153C) with C156S
The experiment in a line: TEVC in Xenopus oocytes. Conditions: Fold-activation at 20 uM in oocytes. The class given is cell-based.
Source text: as §1, §2, §3, §4

A further data set concerns the target T5, K2P2.1 (TREK-1) S131A (Mus musculus, UniProt P97438, S146A).
T5 construct: expressed in transfected cells; host or cells: Xenopus laevis oocytes injected with mRNA
T5 sequence (P97438 1-411 isoform P97438-2 S131A): T1 sequence (P97438 1-411 isoform P97438-2 S131C) with C131A
The experiment in a line: TEVC in Xenopus oocytes. In kind it is cell-based. The note with it: 20 μM, 0 mV.
Source text: as §1, §2, §3, §4

Data set [2] can be described thus: Solubility in aqueous solutions (crystallization sample preparation). The class given is physicochemical. The method, then:
K2P2.1cryst ML335 and ML402 complex crystals grew in the same conditions as K2P2.1cyst, but the protein was incubated for at least 1 h with 2.5 mM of activator before setting the crystal plates. […] Then each compound was diluted 1:100 in SEC buffer to 5 mM concentration, giving a milky solution. This solution was mixed 1:1 to K2P2.1cryst previously concentrated to 12 mg ml^−1. […] The samples were briefly centrifuged in a table-top centrifuge (10,000 g) to remove any insoluble material before setting the crystal plates.

The target in another data set is T6, K2P4.1 (TRAAK) (Homo sapiens, UniProt Q9NYG8).
T6 sequence (Q9NYG8 1-393): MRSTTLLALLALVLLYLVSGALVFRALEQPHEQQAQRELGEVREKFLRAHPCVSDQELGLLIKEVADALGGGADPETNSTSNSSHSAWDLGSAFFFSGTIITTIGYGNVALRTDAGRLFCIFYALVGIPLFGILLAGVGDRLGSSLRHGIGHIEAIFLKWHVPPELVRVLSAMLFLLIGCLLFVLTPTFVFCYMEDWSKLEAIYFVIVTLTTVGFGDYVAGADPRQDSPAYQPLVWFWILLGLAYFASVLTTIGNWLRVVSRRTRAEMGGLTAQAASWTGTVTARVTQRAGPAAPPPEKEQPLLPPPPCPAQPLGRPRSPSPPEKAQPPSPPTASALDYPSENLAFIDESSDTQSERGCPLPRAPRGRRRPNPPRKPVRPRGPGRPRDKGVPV
Conditions: previous studies; cited from earlier work.

Positions count from the first letter of the chain named. Where “and” joins values, the source holds several entries; their conditions need not be identical. Equal values may be shown once.

Consider `C=CC(=O)Nc1ccc(C(=O)NCc2ccc(Cl)cc2Cl)cc1` [Entry 1], for which the “TREK-1 GC activity class” value in data set [1] was “+++ (>5 fold)”. In addition, the TREK-1 activity class entry on K2P2.1 (TREK-1) is listed as “+++ (>5 fold)”.
`C#CCNC(=O)CCC(=C)C(=O)Nc1ccc(C(=O)NCc2ccc(Cl)cc2Cl)cc1` [Entry 2]: the “TREK-1 GC activity class” value in data set [1] is recorded as “+++ (>5 fold)”. Further, the TREK-1 activity class result on K2P2.1 (TREK-1) is recorded as “+++ (>5 fold)”.
As for `C=C(CCC(=O)O)C(=O)Nc1ccc(C(=O)NCc2ccc(Cl)cc2Cl)cc1` [Entry 3], the “TREK-1 GC activity class” value in data set [1] was “++ (2.5-5 fold)”. In addition, the TREK-1 activity class result on K2P2.1 (TREK-1) was “++ (2.5-5 fold)”.
With `CC1=CC(=O)N(c2ccc(C(=O)NCc3ccc(Cl)cc3Cl)cc2)C1=O` [Entry 15], the “TREK-2 GC activity class” value at K2P10.1 (TREK-2)^CG* is listed as “+++ (>5 fold)”. For the same compound, the “TREK-1 GC activity class” value in data set [1] was “+++ (>5 fold)”. The TREK-2 activity class entry at TREK-2 is recorded as “+ (1.5-2.5 fold)”. The TREK-1 activity class entry at K2P2.1 (TREK-1) was “+ (1.5-2.5 fold)”.
In the case of `O=C(NCc1ccc(Cl)cc1Cl)c1ccc(N2C(=O)C=CC2=O)cc1` [Entry 16], on K2P10.1 (TREK-2)^CG*, the “TREK-2 GC activity class” value is recorded as “+++ (>5 fold)”. The “TREK-1 GC activity class” value in data set [1] was “+++ (>5 fold)”. Also, the TREK-2 activity class entry at TREK-2 is recorded as “+ (1.5-2.5 fold)”. Moreover, at K2P2.1 (TREK-1), the TREK-1 activity class entry is given as “+ (1.5-2.5 fold)”.
Regarding `C=C1CC(=O)N(c2ccc(C(=O)NCc3ccc(Cl)cc3Cl)cc2)C1=O` [Entry 17], in data set [1], the “TREK-1 GC activity class” value was “++ (2.5-5 fold)”. At K2P2.1 (TREK-1), the TREK-1 activity class result is “+ (1.5-2.5 fold)”.
`CC1=C(C)C(=O)N(c2ccc(C(=O)NCc3ccc(Cl)cc3Cl)cc2)C1=O` [Entry 20]: the “TREK-2 GC activity class” value at K2P10.1 (TREK-2)^CG* is “+ (1.5-2.5 fold)”. Also, the “TREK-1 GC activity class” value in data set [1] is given as “++ (2.5-5 fold)”.
Regarding `O=C(NCc1ccc(Cl)cc1Cl)c1ccc(C(=O)N2CCS2(=O)=O)cc1` [Entry 48], in data set [1], the “TREK-1 GC activity class” value is on record as “+ (1.5-2.5 fold)”. For the same compound, the TREK-1 activity class result on K2P2.1 (TREK-1) was “+ (1.5-2.5 fold)”.
In the case of `C=CC(=O)Nc1ccc(C(=O)NCc2ccc(Cl)cc2Cl)cc1` [ML336], the “Fold-activation (I activator/I control)” value is 16.1 (FIG. 1) fold at K2P2.1 (TREK-1) S131A; 10+1.0 fold and 10.0 (FIG. 1) fold at K2P2.1 (TREK-1) (20 μM, currents at 0 mV, Xenopus oocytes). Also, on K2P2.1 (TREK-1) (20 μM, Xenopus oocytes), the “Reversibility of activation on washout” value is recorded as “sustained following washout”.
As to `Cc1cc(Cl)ccc1OCCNC(=O)c1cccs1` [ML402], in data set [2], the “Solubility in aqueous solutions” value is given as “insoluble in aqueous solutions”. Moreover, the “Sensitivity of channel to activator” value on K2P4.1 (TRAAK) is listed as “insensitive”.
